Earlier results as cited in patent US20230201171A1, “COMPOSITIONS AND METHODS FOR PREVENTING POST-ERCP PANCREATITIS” (THE BOARD OF TRUSTEES OF THE LELAND STANFORD JUNIOR …, priority 2020, published 2023).

Test system: post-ERCP pancreatitis (PEP)
Settings: rectal indomethacin alone, current standard of care

For `COc1ccc2c(c1)c(CC(=O)O)c(C)n2C(=O)c1ccc(Cl)cc1` [rectal indomethacin, indomethacin], the “effectiveness of PEP prophylaxis” value is listed as 35-40%.
